Test results as given in patent US7772212B2, “Isomaltooligosaccharides to inhibit avian pathogenic intestinal bacteria” (priority 2003, dated 2010).

Assays:
S. typhimurium = assay: Growth test with panose and maltooligosaccharides; format: cell-based, Salmonella typhimurium; details: combinations of panose and maltooligosaccharides (DP 4 to DP 10), anaerobic, 37° C.
Experimental: (§1) To further determine whether Leuconostoc IMO acts as a starch-metabolism inhibitor, B. longum and S. typhimurium were grown in different combinations of panose and maltooligosaccharides (from DP 4 to DP 10). As the concentration of panose in the growth medium increased, the growth of S. typhimurium slowed but B. longum growth increased. (FIGS. 11A and 11B, respectively).

[1] = test system: α-Glucosidase (maltase; EC 3.2.1.20); assay: Kinetic assay for α-glucosidase; format: biochemical; details: 0%, 0.25%, 0.5% test sugar; maltose 0, 50, 100, 250 mM; 37° C., pH 7
Experimental: α-Glucosidase (maltase; EC 3.2.1.20), β-NAD, glucose dehydrogenase (EC 1.1.147) and other reagent chemicals were obtained from the Sigma Chemical Co. (St. Louis, Mo.). The kinetic assays were based on the following reaction;
The kinetic assays were all performed in 96-well plates and read at wavelength 320 nm in a SPECTRAmax Plus microtiter plate reader (Molecular Devices Corp., Sunnyvale, Calif.) at 37° C. The software package Softmax™ was used for data analysis. α-Glucosidase (maltase; EC 3.2.1.20), β-NAD, and glucose dehydrogenase (EC 1.1.147) solutions were prepared with 0.1M K2HPO4 (pH 7) buffer. Each well contained 25 μl of 0.13 IU/ml glucose dehydrogenase, 25 μl of 1.65 IU/ml of α-glucosidase, and 20 μl of 12 mM of G-NAD in a total volume of 200 μl with different combinations of sugars and 0.1M K2HPO4 (pH 7) buffer. Absorbance change with time was measured at 320 nm.
In order to determine the role of branching in the inhibition, the Ki values for panose and isomaltotriose were also determined.

B. longum = assay: Growth test with panose and maltooligosaccharides; format: cell-based, Bifidobacterium longum; details: combinations of panose and maltooligosaccharides (DP 4 to DP 10), anaerobic, 37° C.
Experimental: as §1

Compound	Growth of S. typhimurium as panose concentration in medium increased (S. typhimurium)	Inhibition of α-glucosidase (maltase) activity [1]	Growth of B. longum as panose concentration in medium increased (B. longum)
OC[C@H]1O[C@H](OC[C@H]2O[C@H](O[C@H]3[C@H](O)[C@@H](O)C(O)O[C@@H]3CO)[C@H](O)[C@@H](O)[C@@H]2O)[C@H](O)[C@@H](O)[C@@H]1O (stereo partly shown) [panose]	slowed	showed an inhibition	increased
OC[C@H]1O[C@H](OC[C@H]2O[C@H](OC[C@H]3OC(O)[C@H](O)[C@@H](O)[C@@H]3O)[C@H](O)[C@@H](O)[C@@H]2O)[C@H](O)[C@@H](O)[C@@H]1O (stereo partly shown) [Isomaltotriose, isomaltotriose]	–	not inhibitory	–
